Tested on: SRC
Assay type: binding
Details: competitor against photo-probe labeling, Figure S1

Row | Compound | competition of active site labeling of SRC
1 | CNC(=O)c1cc(Oc2ccc(NC(=O)Nc3cc(C(C)(C)C)nn3-c3ccc4ncccc4c3)c(F)c2)ccn1 [Rebastinib, reference compound] | able to block active site labeling
2 | Cc1ccc(C(=O)Nc2ccc(CN3CCN(C)CC3)c(C(F)(F)F)c2)cc1C#Cc1cnc2cccnn12 [Ponatinib, reference compound] | able to block active site labeling

From publication PMC3523701 (Journal of the American Chemical Society, 2012)
